From ChEMBL document CHEMBL1201862, “PubChem BioAssay data set” (2004)
Activity calls are given as the source filed them. How the calls were made is not given here.

Legend:
[1] = target: T1, High affinity choline transporter 1 (Homo sapiens, UniProt Q9GZV3); experiment: human choline transporter blockers, potency – cell-based, 5-point CRC, membrane potential dye, dose response (AID 504840); format: functional
T1 sequence (Q9GZV3 whole entry): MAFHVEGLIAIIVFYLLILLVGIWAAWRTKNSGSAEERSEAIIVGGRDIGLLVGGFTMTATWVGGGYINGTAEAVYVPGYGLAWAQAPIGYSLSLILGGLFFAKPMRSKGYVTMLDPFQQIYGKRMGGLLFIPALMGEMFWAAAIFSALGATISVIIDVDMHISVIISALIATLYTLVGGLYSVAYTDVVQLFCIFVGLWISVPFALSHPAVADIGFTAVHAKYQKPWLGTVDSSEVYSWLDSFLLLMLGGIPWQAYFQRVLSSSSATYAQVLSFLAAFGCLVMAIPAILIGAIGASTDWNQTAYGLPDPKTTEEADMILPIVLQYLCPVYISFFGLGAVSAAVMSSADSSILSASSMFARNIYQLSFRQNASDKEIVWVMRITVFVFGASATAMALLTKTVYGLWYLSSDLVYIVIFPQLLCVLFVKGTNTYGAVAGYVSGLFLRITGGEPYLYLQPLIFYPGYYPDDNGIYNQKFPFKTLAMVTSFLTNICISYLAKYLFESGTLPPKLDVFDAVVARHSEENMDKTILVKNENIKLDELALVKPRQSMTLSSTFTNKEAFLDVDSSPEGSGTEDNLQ

[2] = target: T1, High affinity choline transporter 1; experiment: human choline transporter blockers, potency – cell-based, 10-point CRC, membrane potential dye, dose response (AID 588401); format: functional;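 further: membrane potential dye fluorescence of choline-evoked depolarization via CHT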

Cc1nnc(NCc2cccc(Cl)c2)c2ccccc12
IC50 [1]: 9.8 µM (active) | IC50 [2]: 4.74 µM (active)
